# According to patent publication US5877185A, “Synergistic compositions useful as anti-tumor agents” (priority 1995, dated 1999):
# Like-named read-outs stand apart in the source and are kept apart here.
# Experiments:
# E ras cells = assay: cytostatic and cytocidal activity; format: cell-based, bovine; settings: for cytostatic and cytocidal effects: at the concentrations given above; for IC50: Bos taurus, average of three trials
# Excerpt: pADPRT ligands that oxidize CCHC zinc fingers are not unique inhibitors of pADPRT. […] Hakam et al., FEBS Lett. 193:1-4 (1991). These ligands bind non-covalently to the nicotinamide site and internal DNA-seeking domains of pADPRT. Bauer et al., manuscript in preparation (1994). In contrast, CCHC-oxidizing ligands also bind non-covalently to the nicotinamide site, but initially attack the F1 zinc finger oxidatively. Id. […] Id. […] U.S. Ser. No. 08/076,313 filed Jun. 11, 1993.
# Each value is the average of three trials. Each trial deviated from the average by no more than twenty percent. […] Another isomer of the iodo-nitro-benzamide series, 2-iodo-4-nitrobenzamide had no effect at the concentrations given above.
# MT-2 cells = assay: effectiveness on human T-lymphoblastoid leukemia cells, MT-2; format: cell-based; settings: for IC50: Homo sapiens, MT2, concentration decreasing cell viability to 50% of control, 48 h incubation, read-out: I50; for LD100: zero viability after 48 hours of incubation
# Procedure: (§1) IV. Effectiveness of 4-(halogen)-3-nitro-benzamide compounds as tested with human T-lymphoblastoid leukemia cell lines in culture.
# (§2) Cells (MT-2 cells, or, in case of 3-fluoro-4-nitro-benzamide, CEM-4 cells) were seeded at a density of 0.1×10^5 /ml; the drugs were added at the time of seeding. The cultures were incubated at 37° C. in a 5% CO2 atmosphere and the cells numbers were monitored by hemacytometer counting in 24 hr intervals.
# CEM-4 cells = assay: effectiveness on human T-lymphoblastoid leukemia cells, CEM-4; format: cell-based
# Procedure: as §1, §2
# Molt-4 cells = assay: time course of cell killing alone and with BSO, Molt-4; format: cell-based; settings: Molt-4, 2-3 day period; 4 μM drug, 1 mM BSO
# Procedure: (§3) Molt 4-cells were seeded at a density of 0.05×10^6 cell/ml in the recommended growth medium in the absence or the presence of drugs as indicated. Cells were incubated at 37° C. in a 5% CO2 atmosphere and proliferation was monitored in 14 hr. by cell counting in a hemacytometer. .smallcircle., untreated control; .circle-solid., treated with 4 μM 4-iodo-3-nitrobenzoic acid; .gradient., treated with 1 mM BSO; .tangle-soliddn., treated with 4 μM-iodo-3-nitrobenzoic acid and 1 mM BSO; .quadrature., treated with 4 μM 4-INO2 BA; .box-solid., treated with 1 mM BSO; .gradient., treated with 4 μM INO2 BA and 1 mM BSO. L-1210 cells were seeded at a density of 0.05×10^6 cells/ml either from untreated stock suspensions or from 24-hr. pretreated (0.2×10^6 cells/ml) suspensions. .smallcircle., untreated control; .circle-solid., treated with […] NOBA; .gradient., treated with 1 mM BSO; .tangle-soliddn., 24-hr pretreatment with 1 mM BSO then treated with 4 μM NOBA.
# (§4) A time course of the cell killings by 4-iodo-3-nitrobenzoic acid, INO2 BA and NOBA, each alone and in combination with BSO was obtained. Molt-4 cells were seeded at a density of 0.05×10^6 cells/ml in the recommended growth medium in the absence or presence of drugs as indicated in FIG. 3. Drugs were added to the wells immediately after seeding from 10-40 mM stock solution in DMSO. BSO was added from a 100 mM aqueous stock solution. Cells were incubated at 37° C. in a 5% CO2 atmosphere and proliferation was monitored in 14 hours by cell counting in a hemacytometer.
# [1] = system: L-1210 Murine Leukemia Cells; assay: effect of nitroso- and nitro-compounds in L-1210 murine leukemia cells (suspension); format: cell-based; settings: drug exposure 18 hours
# Procedure: II. I50 and LD100 Values for Nitroso- and Nitro-Compounds in (A) Mammary Cancer Cells (monolayer cultures) and in (B) L-1210 Murine Leukemia Cells (suspension culture).
# Cells were seeded at 5×10^4 to 2×10^5 /ml; drugs were added at the time of seeding; drug exposure was for 18 hours.
# L-1210 cells = assay: time course of cell killing alone and with BSO, L-1210; format: cell-based, murine; settings: L-1210, 2-3 day period; 1 mM BSO
# Procedure: as §3, §4
# AA-2 leukemia cells = assay: cytocidal effect in combination with ascorbate
# Procedure: Because of the in vitro reactivity of the nitroso group of INOBA with both ascorbate and GSH, the apoptosis-inducing effect of NOBA with the action of the prodrug INO2 BA in the presence of ascorbate, added simultaneously with both drugs was compared.
# AA-2 cells were seeded at a density of 0.2×10^6 cells/ml. Drugs and/or sodium ascorbate were added at the time of seeding, and cells were counted by hemacytometer after incubation (37° C., 5% CO^2) for 18 hr (Day 1) and for 42 hr (Day 2). Viability was evaluated by Trypan Blue exclusion.
# [2] = solubility and stability of nitro versus nitroso compound; format: physicochemical
# HIV-1 (LAV strain) = assay: in vitro anti-retroviral testing (HIV-1 inactivation) in human peripheral lymphocytes (PBL); format: cell-based
# Procedure: Both 6-NOBP and NOBA were tested on viral growth of HIV-1 (LAV strain) in phytohemagglutinin-stimulated human peripheral lymphocytes (PBL). An HIV-1 stock having an infectivity titer of 100,000 TCID50 was incubated for 30 min. at 22° C. with either of the drugs. Control HIV samples, containing no drugs, were incubated in the same manner. […] At the end of this incubation cultures were assayed for productive infection by an immunoassay for HIV-1 antigens and by reverse transcriptase as described in McDougal et al., J. Immunol. Methods 76:171-183 (1985). Virus titers were expressed as percentile values (percent infected cultures) compared to the controls, containing HIV dilutions which were not preincubated with the C-nitroso drugs. In a separate series of experiments, HIV-1 dilutions and C-nitroso drugs (see upper abscissa) were not preincubated but were added simultaneously to lymphocytes in exactly the same concentrations as described previously (i.e., following preincubation) and viral growth monitored 9 days later.
# HIV-1 NC zinc fingers = settings: isolated HIV-1 NC zinc fingers and intact HIV-1 virions; cited from earlier work
# [3] = system: human immunodeficiency virus HIV-1; settings: human lymphocytes; cited from earlier work
# [4] = system: leukemic and other malignant human cells; settings: cited from earlier work
# [5] = system: normal bone marrow progenitor cells; settings: tumoricidal concentrations; cited from earlier work
# neutrophil granulocytes = settings: tumoricidal concentrations; cited from earlier work
smiles,measurement,setting,value
NC(=O)c1ccc([N+](=O)[O-])cc1I [2-iodo-4-nitrobenzamide],cytostatic and cytocidal effects,E ras cells,no effect
NC(=O)c1cc([N+](=O)[O-])ccc1I [2-iodo-5-nitrobenzamide],IC50,"E ras cells; E ras cells, read-out: Cytostatic Effect I50",12 µM
same,IC50,"E ras cells; with 0.8 mM BSO, read-out: Cytocidal Effect I50",2 µM
same,cytostatic and cytocidal effects,E ras cells,more effective of the two isomers
NC(=O)c1ccc(Br)c([N+](=O)[O-])c1 [4-bromo-3-nitro-benzamide],IC50,MT-2 cells,120 µM
same,LD100,MT-2 cells,290
NC(=O)c1ccc(Cl)c([N+](=O)[O-])c1 [4-chloro-3-nitro-benzamide],IC50,MT-2 cells,130 µM
same,LD100,MT-2 cells,300
NC(=O)c1ccc(F)c([N+](=O)[O-])c1 [4-fluoro-3-nitro-benzamide],IC50,"CEM-4 cells; Homo sapiens, concentration decreasing cell viability to 50% of control, read-out: I50",120 µM
same,LD100,CEM-4 cells; zero viability after 48 hours of incubation,280
O=C(O)c1ccc(I)c([N+](=O)[O-])c1 [4-iodo-3-nitrobenzoic acid],effect on cell proliferation,Molt-4 cells,no significant effect
same,I50,[1],16 nanomoles/10^5 cells
same,LD100,[1],32 nanomoles/10^5 cells
same,effect on cell proliferation,L-1210 cells,no significant effect
"O=C1O[C@H]([C@@H](O)CO)C([O-])=C1O.[Na+] [Ascorbate, sodium ascorbate, reference compound]",effect on AA-2 leukemia cells by itself,AA-2 leukemia cells; 160 μM,no effect
same,cell number Day 1,"AA-2 leukemia cells; ascorbate 160 μM, 18 hr",480000 mL⁻¹
same,cell number Day 2,"AA-2 leukemia cells; ascorbate 160 μM, 42 hr",900000 mL⁻¹
"O=c1ccc2cc([N+](=O)[O-])ccc2o1 [NO2 BP, 6-Nitro-1,2-benzopyrone]",I50,[1],35 nanomoles/10^5 cells
same,LD100,[1],80 nanomoles/10^5 cells
same,stability and solubility,[2],more stable and soluble than the active nitroso compound
same,inhibition of HIV-1 activity in human lymphocytes,HIV-1 (LAV strain),52%
same,TCID50 (calculated infectious titer after treatment),HIV-1 (LAV strain); 500 μM,"85,114 TCID50"
same,inhibition at 500 µM,"HIV-1 (LAV strain); Human immunodeficiency virus 1, Lymphocyte",52.1%
same,log reduction at 500 µM,"HIV-1 (LAV strain); Human immunodeficiency virus 1, Lymphocyte, 0.5 h, read-out: Decrease",0.32
"O=Nc1ccc2oc(=O)ccc2c1 [NOBP, 6-nitroso-1,2-benzopyrone]",zinc ejection,HIV-1 NC zinc fingers,eject zinc
same,inhibition of HIV-1 infection,[3],inhibit infection
same,suppression of proliferation,[4],completely suppressed
same,effect on normal bone marrow progenitor cells,[5],relatively harmless
same,stability and solubility,[2],poorly soluble
same,TCID50 (calculated infectious titer after treatment),HIV-1 (LAV strain); 100 μM,102 TCID50
same,log reduction at 100 µM,"HIV-1 (LAV strain); Human immunodeficiency virus 1, Lymphocyte, 0.5 h, 100 μM, of TCID50, read-out: Decrease",3.24
same,inhibition at 100 µM,"HIV-1 (LAV strain); Human immunodeficiency virus 1, Lymphocyte, 100 μM",99.9%
same,effect on superoxide formation by neutrophil granulocytes,neutrophil granulocytes,relatively harmless
